Positions of bridges follow the written chain, without caps; N, C: chain ends. Non-standard residues stand in square brackets, D forms with d. Residues, ends and D or L forms follow the SMILES beside them. Phe(4-CF3) = N[C@@H](Cc1ccc(C(F)(F)F)cc1)C(=O)O; Phe(4-tBu) = CC(C)(C)c1ccc(C[C@H](N)C(=O)O)cc1; Bip = N[C@@H](Cc1ccc(-c2ccccc2)cc1)C(=O)O; Igl = N[C@H](C(=O)O)C1Cc2ccccc2C1; hPhe = N[C@@H](CCc1ccccc1)C(=O)O; R8 = C=CCCCCCC[C@@](C)(N)C(=O)O; Cit = NC(=O)NCCC[C@H](N)C(=O)O; S5 = C=CCCC[C@](C)(N)C(=O)O; Aib = CC(C)(N)C(=O)O
Columns and labels:
Mcl-1 = Mcl-1 (Homo sapiens, UniProt Q07820); test: Ki determination for Mcl-1 (BCL-2 family binding spectrum); conditions: read-out: Ki MCL-1
Outline: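 Competitive fluorescence polarization assay in which compounds displace a fluoresceinated peptidomimetic macrocycle tracer from Mcl-1. Affinity constants were obtained by nonlinear regression.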

Bcl-2 = Bcl-2 (Homo sapiens, UniProt P10415); test: Ki determination for Bcl-2 (BCL-2 family binding spectrum); conditions: read-out: Ki BCL-2
Source text: To assess the binding and affinity of compounds that antagonize the interaction between a peptide and an acceptor protein, a fluorescence polarization assay (FPA) utilizing a fluoresceinated peptidomimetic macrocycle derived from a peptidomimetic precursor sequence is used, for example. The FPA technique measures the molecular orientation and mobility using polarized light and fluorescent tracer. […] A compound that antagonizes the interaction between the fluoresceinated peptidomimetic macrocycle and an acceptor protein will be detected in a competitive binding FPA experiment.
For example, putative antagonist compounds (1 nM to 1 mM) and a fluoresceinated peptidomimetic macrocycle (25 nM) are incubated with the acceptor protein (50 nM) in binding buffer (140 mM NaCl, 50 mM Tris-HCL, pH 7.4) for 30 minutes at room temperature. Antagonist binding activity is measured, for example, by fluorescence polarization on a luminescence spectrophotometer (e.g. Perkin-Elmer LS50B). Kd values may be determined by nonlinear regression analysis using, for example, Graphpad Prism software (GraphPad Software, Inc., San Diego, Calif.).

Sequence of Bcl-2 (P10415 whole entry, species assumed): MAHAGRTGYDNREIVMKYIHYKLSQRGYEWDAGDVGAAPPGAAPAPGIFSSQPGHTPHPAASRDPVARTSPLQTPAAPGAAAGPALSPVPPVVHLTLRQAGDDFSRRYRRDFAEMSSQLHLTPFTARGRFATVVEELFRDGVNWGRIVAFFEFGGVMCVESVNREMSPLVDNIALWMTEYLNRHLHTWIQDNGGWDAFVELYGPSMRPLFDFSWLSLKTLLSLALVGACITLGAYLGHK
Sequence of Mcl-1 (Q07820 whole entry, species assumed): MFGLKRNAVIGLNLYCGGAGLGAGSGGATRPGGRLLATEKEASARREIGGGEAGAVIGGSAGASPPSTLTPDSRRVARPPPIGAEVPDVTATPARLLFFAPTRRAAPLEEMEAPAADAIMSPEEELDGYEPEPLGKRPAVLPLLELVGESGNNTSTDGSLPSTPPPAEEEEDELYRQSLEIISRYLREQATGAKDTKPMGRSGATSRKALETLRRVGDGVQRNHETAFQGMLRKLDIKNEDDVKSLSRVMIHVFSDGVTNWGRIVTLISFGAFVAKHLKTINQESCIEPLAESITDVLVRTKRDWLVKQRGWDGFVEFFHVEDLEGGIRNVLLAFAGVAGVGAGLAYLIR

Row | SMILES | Ki (Mcl-1) [nM] | Ki (Bcl-2) [nM]
1 | CC[C@H](C)[C@H](NC(C)=O)C(=O)N[C@@H](Cc1c[nH]c2ccccc12)C(=O)N[C@H](C(=O)N[C@@H](C)C(=O)N[C@@H](CCC(N)=O)C(=O)N[C@@H](C)C(=O)N[C@@H](CC(C)C)C(=O)N[C@@H](CCCNC(N)=O)C(=O)N[C@]1(C)CCCCCCC=CCCC[C@@](C)(C(=O)N[C@@H](Cc2ccc(O)cc2)C(=O)N[C@@H](Cc2ccc(O)cc2)C(=O)N[C@@H](C)C(N)=O)NC(=O)[C@H](CC(N)=O)NC(=O)[C@H](Cc2ccccc2)NC(=O)[C@H](C)NC(=O)[C@H](CC(=O)O)NC(=O)CNC(=O)[C@H]([C@@H](C)CC)NC1=O)[C@@H](C)CC [compound 1655] (Ac-IWIAQAL[Cit][R8]IGDAFN[S5]YYA-NH2; staple 9-16) | 7.5 | 212
2 | CC[C@H](C)[C@H](NC(C)=O)C(=O)N[C@@H](Cc1c[nH]c2ccccc12)C(=O)N[C@H](C(=O)N[C@@H](C)C(=O)N[C@@H](CCC(N)=O)C(=O)N[C@@H](C)C(=O)N[C@@H](CC(C)C)C(=O)N[C@@H](CCCNC(=N)N)C(=O)N[C@]1(C)CCCCCCC=CCCC[C@@](C)(C(=O)N[C@@H](Cc2ccc(O)cc2)C(=O)N[C@@H](CCc2ccccc2)C(=O)N[C@@H](C)C(N)=O)NC(=O)[C@H](CC(N)=O)NC(=O)[C@H](Cc2ccccc2)NC(=O)[C@H](C)NC(=O)[C@H](CC(=O)O)NC(=O)CNC(=O)[C@H]([C@@H](C)CC)NC1=O)[C@@H](C)CC [compound 1757] (Ac-IWIAQALR[R8]IGDAFN[S5]Y[hPhe]A-NH2; staple 9-16) | 8 | 30.7
3 | CC[C@H](C)[C@H](NC(C)=O)C(=O)N[C@@H](Cc1c[nH]c2ccccc12)C(=O)N[C@H](C(=O)N[C@@H](C)C(=O)N[C@@H](CCC(N)=O)C(=O)N[C@@H](C)C(=O)N[C@@H](CC(C)C)C(=O)N[C@@H](CCCNC(=N)N)C(=O)N[C@]1(C)CCCCCCC=CCCC[C@@](C)(C(=O)N[C@@H](Cc2ccc(O)cc2)C(=O)N[C@@H](Cc2ccc(O)cc2)C(=O)N[C@@H](C)C(N)=O)NC(=O)[C@H](CC(N)=O)NC(=O)[C@H](CCc2ccccc2)NC(=O)[C@H](C)NC(=O)[C@H](CC(=O)O)NC(=O)CNC(=O)[C@H]([C@@H](C)CC)NC1=O)[C@@H](C)CC [compound 1743] (Ac-IWIAQALR[R8]IGDA[hPhe]N[S5]YYA-NH2; staple 9-16) | 2.7 | 38.9
4 | CC[C@H](C)[C@H](NC(C)=O)C(=O)N[C@@H](Cc1c[nH]c2ccccc12)C(=O)N[C@H](C(=O)N[C@@H](C)C(=O)N[C@@H](C)C(=O)N[C@@H](C)C(=O)N[C@@H](CC(C)C)C(=O)N[C@@H](CCCNC(=N)N)C(=O)N[C@]1(C)CCCCCCC=CCCC[C@@](C)(C(=O)N[C@@H](Cc2ccc(O)cc2)C(=O)N[C@@H](Cc2ccc(O)cc2)C(=O)N[C@@H](C)C(N)=O)NC(=O)[C@H](CCC(=O)O)NC(=O)[C@H](Cc2ccccc2)NC(=O)[C@H](C)NC(=O)[C@H](CC(=O)O)NC(=O)CNC(=O)[C@H]([C@@H](C)CC)NC1=O)[C@@H](C)CC [compound 1749] (Ac-IWIAAALR[R8]IGDAFE[S5]YYA-NH2; staple 9-16) | 1.8 | 30.7
5 | CC[C@H](C)[C@H](NC(C)=O)C(=O)N[C@@H](Cc1c[nH]c2ccccc12)C(=O)N[C@H](C(=O)N[C@@H](C)C(=O)N[C@@H](CCC(N)=O)C(=O)N[C@@H](C)C(=O)N[C@H](C(=O)N[C@@H](CCCNC(=N)N)C(=O)N[C@]1(C)CCCCCC/C=C\CCC[C@@](C)(C(=O)N[C@@H](Cc2ccc(O)cc2)C(=O)N[C@@H](Cc2ccc(O)cc2)C(=O)N[C@@H](C)C(N)=O)NC(=O)[C@H](CC(N)=O)NC(=O)[C@H](Cc2ccccc2)NC(=O)[C@H](C)NC(=O)[C@H](CC(=O)O)NC(=O)CNC(=O)[C@H]([C@@H](C)CC)NC1=O)C1Cc2ccccc2C1)[C@@H](C)CC [compound 1693] (Ac-IWIAQA[Igl]R[R8]IGDAFN[S5]YYA-NH2; staple (Z) 9-16) |  | > 1000
6 | CC[C@H](C)[C@H](NC(C)=O)C(=O)N[C@@H](Cc1c[nH]c2ccccc12)C(=O)N[C@H](C(=O)N[C@@H](C)C(=O)NC(C)(C)C(=O)N[C@@H](C)C(=O)N[C@@H](CC(C)C)C(=O)N[C@@H](CCCNC(=N)N)C(=O)N[C@]1(C)CCCCCCC=CCCC[C@@](C)(C(=O)N[C@@H](Cc2ccc(O)cc2)C(=O)N[C@@H](Cc2ccc(O)cc2)C(=O)N[C@@H](C)C(N)=O)NC(=O)[C@H](CC(N)=O)NC(=O)[C@H](Cc2ccccc2)NC(=O)[C@H](C)NC(=O)[C@H](CC(=O)O)NC(=O)CNC(=O)[C@H]([C@@H](C)CC)NC1=O)[C@@H](C)CC [compound 1708] (Ac-IWIA[Aib]ALR[R8]IGDAFN[S5]YYA-NH2; staple 9-16) |  | 120
7 | CC[C@H](C)[C@H](NC(C)=O)C(=O)N[C@@H](Cc1c[nH]c2ccccc12)C(=O)N[C@H](C(=O)N[C@@H](C)C(=O)N[C@@H](CCC(N)=O)C(=O)N[C@@H](C)C(=O)N[C@@H](Cc1ccc(C(F)(F)F)cc1)C(=O)N[C@@H](CCCNC(=N)N)C(=O)N[C@]1(C)CCCCCCC=CCCC[C@@](C)(C(=O)N[C@@H](Cc2ccc(O)cc2)C(=O)N[C@@H](Cc2ccc(O)cc2)C(=O)N[C@@H](C)C(N)=O)NC(=O)[C@H](CC(N)=O)NC(=O)[C@H](Cc2ccccc2)NC(=O)[C@H](C)NC(=O)[C@H](CC(=O)O)NC(=O)CNC(=O)[C@H]([C@@H](C)CC)NC1=O)[C@@H](C)CC [compound 1694] (Ac-IWIAQA[Phe(4-CF3)]R[R8]IGDAFN[S5]YYA-NH2; staple 9-16) |  | > 1000
8 | CC[C@H](C)[C@H](NC(C)=O)C(=O)N[C@@H](Cc1c[nH]c2ccccc12)C(=O)N[C@@H](Cc1ccc(-c2ccccc2)cc1)C(=O)N[C@@H](C)C(=O)N[C@@H](CCC(N)=O)C(=O)N[C@@H](C)C(=O)N[C@@H](CC(C)C)C(=O)N[C@@H](CCCNC(=N)N)C(=O)N[C@]1(C)CCCCCCC=CCCC[C@@](C)(C(=O)N[C@@H](Cc2ccc(O)cc2)C(=O)N[C@@H](Cc2ccc(O)cc2)C(=O)N[C@@H](C)C(N)=O)NC(=O)[C@H](CC(N)=O)NC(=O)[C@H](Cc2ccccc2)NC(=O)[C@H](C)NC(=O)[C@H](CC(=O)O)NC(=O)CNC(=O)[C@H]([C@@H](C)CC)NC1=O [compound 1686] (Ac-IW[Bip]AQALR[R8]IGDAFN[S5]YYA-NH2; staple 9-16) | 11 | > 1000
9 | CC[C@H](C)[C@H](NC(C)=O)C(=O)N[C@@H](Cc1c[nH]c2ccccc12)C(=O)N[C@H](C(=O)N[C@@H](C)C(=O)N[C@@H](CCC(N)=O)C(=O)N[C@@H](C)C(=O)N[C@@H](C)C(=O)N[C@@H](CCCNC(N)=O)C(=O)N[C@]1(C)CCCCCCC=CCCC[C@@](C)(C(=O)N[C@@H](Cc2ccc(O)cc2)C(=O)N[C@@H](Cc2ccc(O)cc2)C(=O)N[C@@H](C)C(N)=O)NC(=O)[C@H](CC(N)=O)NC(=O)[C@H](Cc2ccccc2)NC(=O)[C@H](C)NC(=O)[C@H](CC(=O)O)NC(=O)CNC(=O)[C@H]([C@@H](C)CC)NC1=O)[C@@H](C)CC [compound 1771] (Ac-IWIAQAA[Cit][R8]IGDAFN[S5]YYA-NH2; staple 9-16) | > 1000 | > 1000
10 | CC[C@H](C)[C@H](NC(C)=O)C(=O)N[C@@H](Cc1c[nH]c2ccccc12)C(=O)N[C@@H](Cc1ccc(C(C)(C)C)cc1)C(=O)N[C@@H](C)C(=O)N[C@@H](CCC(N)=O)C(=O)N[C@@H](C)C(=O)N[C@@H](CC(C)C)C(=O)N[C@@H](CCCNC(=N)N)C(=O)N[C@]1(C)CCCCCCC=CCCC[C@@](C)(C(=O)N[C@@H](Cc2ccc(O)cc2)C(=O)N[C@@H](Cc2ccc(O)cc2)C(=O)N[C@@H](C)C(N)=O)NC(=O)[C@H](CC(N)=O)NC(=O)[C@H](Cc2ccccc2)NC(=O)[C@H](C)NC(=O)[C@H](CC(=O)O)NC(=O)CNC(=O)[C@H]([C@@H](C)CC)NC1=O [compound 1684] (Ac-IW[Phe(4-tBu)]AQALR[R8]IGDAFN[S5]YYA-NH2; staple 9-16) |  | > 1000
11 | CC[C@H](C)[C@H](NC(C)=O)C(=O)N[C@]1(C)CCCCCCC=CCCCC2(CCCC=CCCCCCC[C@@](C)(C(=O)N[C@@H](Cc3ccc(O)cc3)C(=O)N[C@@H](Cc3ccc(O)cc3)C(=O)N[C@@H](C)C(N)=O)NC(=O)[C@H](CC(N)=O)NC(=O)[C@H](Cc3ccccc3)NC(=O)[C@H](CCC(=O)O)NC(=O)[C@H](CC(=O)O)NC(=O)CNC(=O)[C@H]([C@@H](C)CC)NC2=O)NC(=O)[C@H](CCCNC(=N)N)NC(=O)[C@H](CC(C)C)NC(=O)[C@H](C)NC(=O)[C@H](CCC(N)=O)NC(=O)[C@H](C)NC(=O)[C@H]([C@@H](C)CC)NC1=O (stereo partly drawn) [compound 1782] |  | 22
12 | CC[C@H](C)[C@H](NC(C)=O)C(=O)N[C@@H](Cc1c[nH]c2ccccc12)C(=O)N[C@H](C(=O)N[C@@H](C)C(=O)N[C@@H](CCC(N)=O)C(=O)N[C@@H](CCC(=O)O)C(=O)N[C@@H](CC(C)C)C(=O)N[C@@H](CCCNC(=N)N)C(=O)N[C@]1(C)CCCCCCC=CCCC[C@@](C)(C(=O)N[C@@H](Cc2ccc(O)cc2)C(=O)N[C@@H](Cc2ccc(O)cc2)C(=O)N[C@@H](C)C(=O)N[C@@H](CCCNC(=N)N)C(=O)N[C@@H](CCCNC(=N)N)C(N)=O)NC(=O)[C@H](CC(N)=O)NC(=O)[C@H](Cc2ccccc2)NC(=O)[C@H](CCC(=O)O)NC(=O)[C@H](CC(=O)O)NC(=O)CNC(=O)[C@H]([C@@H](C)CC)NC1=O)[C@@H](C)CC [compound 1629] |  | 23.5
